Source: ChEMBL document CHEMBL5724914, “Linking interpersonal differences in gut microbiota composition and drug biotransformation activity” (2024)

Legend:
[1] = (§1) The drug is tested on Z-027 corresponding to metagenome with ENA study accession number: PRJEB37062 and ENA sample accession number: ERS12561826 for biotransformation under anaerobic condition. The drug concentrations were measured over 9 timepoints collected between 0 and 24 hours of incubation by liquid-chromatography-coupled mass spectrometry (LC–MS); details: 2 µM
[2] = as §1, with “Z-023” for “Z-027”, “ERS12561822” for “ERS12561826”; details: 2 µM
[3] = (§2) The drug is tested on Z-020 corresponding to rabbit gut metagenome with ENA study accession number: PRJEB37062 and ENA sample accession number: ERS12561819 for biotransformation under anaerobic condition. The drug concentrations were measured over 9 timepoints collected between 0 and 24 hours of incubation by liquid-chromatography-coupled mass spectrometry (LC–MS); details: 2 µM
[4] = as §1, with “Z-008” for “Z-027”, “ERS12561808” for “ERS12561826”; details: 2 µM
[5] = as §1, with “Z-004” for “Z-027”, “ERS12561804” for “ERS12561826”; details: 2 µM
[6] = as §2, with “Z-003” for “Z-020”, “pig” for “rabbit”, “ERS12561803” for “ERS12561819”; details: 2 µM
[7] = as §2, with “Z-001” for “Z-020”, “mouse” for “rabbit”, “ERS12561801” for “ERS12561819”; details: 2 µM
[8] = as §2, with “WLS-082” for “Z-020”, “human” for “rabbit”, “ERS12561751” for “ERS12561819”; details: 2 µM
[9] = as §2, with “WLS-077” for “Z-020”, “human” for “rabbit”, “ERS12561750” for “ERS12561819”; details: 2 µM
[10] = as §2, with “WLS-069” for “Z-020”, “human” for “rabbit”, “ERS12561748” for “ERS12561819”; details: 2 µM
[11] = as §2, with “WLS-038” for “Z-020”, “human” for “rabbit”, “ERS12561745” for “ERS12561819”; details: 2 µM
[12] = as §2, with “WLS-007” for “Z-020”, “human” for “rabbit”, “ERS12561742” for “ERS12561819”; details: 2 µM
[13] = human gut metagenome, 24 h, 2 µM
[14] = human gut metagenome, 24 h, 2 µM; remark: listed apart in the source
[15] = human gut metagenome, 24 h, 2 µM; remark: listed apart in the source
[16] = human gut metagenome, 24 h, 2 µM; remark: listed apart in the source
[17] = human gut metagenome, 24 h, 2 µM; remark: listed apart in the source
[18] = human gut metagenome, 24 h, 2 µM; remark: listed apart in the source
[19] = human gut metagenome, 24 h, 2 µM; remark: listed apart in the source
[20] = as §2, with “Z-019” for “Z-020”, “rat” for “rabbit”, “ERS12561818” for “ERS12561819”; details: 2 µM
Also: call rule not given here.

| Compound | Bacterial Biotransformation [1] | Bacterial Biotransformation [2] | Bacterial Biotransformation [3] | Bacterial Biotransformation [4] | Bacterial Biotransformation [5] | Bacterial Biotransformation [6] | Bacterial Biotransformation [7] | Bacterial Biotransformation [8] | Bacterial Biotransformation [9] | Bacterial Biotransformation [10] | Bacterial Biotransformation [11] | Bacterial Biotransformation [12] | Bacterial Biotransformation [13] | Bacterial Biotransformation [14] | Bacterial Biotransformation [15] | Bacterial Biotransformation [16] | Bacterial Biotransformation [17] | Bacterial Biotransformation [18] | Bacterial Biotransformation [19] | Bacterial Biotransformation [20] |
| --- | --- | --- | --- | --- | --- | --- | --- | --- | --- | --- | --- | --- | --- | --- | --- | --- | --- | --- | --- | --- |
| O=C(O)c1cc(/N=N/c2ccc(S(=O)(=O)Nc3ccccn3)cc2)ccc1O [SULFASALAZINE] | Compound NOT metabolized | Compound metabolized | Compound metabolized | Compound metabolized | Compound metabolized | Compound metabolized | Compound metabolized | Compound metabolized | Compound metabolized | Compound metabolized | Compound metabolized | Compound metabolized | Compound metabolized | Compound metabolized | Compound metabolized | Compound metabolized | Compound metabolized | Compound metabolized | Compound metabolized |  |
| N#Cc1ccc2c(c1)N(CCCN1CCC(O)CC1)c1ccccc1S2 [PERICIAZINE] |  |  |  |  |  |  |  | Compound NOT metabolized | Compound NOT metabolized | Compound metabolized | Compound metabolized | Compound NOT metabolized | Compound NOT metabolized | Compound NOT metabolized | Compound NOT metabolized | Compound metabolized | Compound NOT metabolized | Compound NOT metabolized | Compound metabolized |  |
| N[C@@H](Cc1ccc(N(CCCl)CCCl)cc1)C(=O)O |  |  | Compound metabolized |  |  | Compound metabolized | Compound metabolized |  | Compound metabolized |  | Compound metabolized | Compound metabolized | Compound metabolized | Compound NOT metabolized | Compound metabolized | Compound metabolized | Compound metabolized | Compound metabolized | Compound metabolized |  |
| N#Cc1ccc2[nH]cc(CCCCN3CCN(c4ccc5oc(C(N)=O)cc5c4)CC3)c2c1 [VILAZODONE] | Compound NOT metabolized | Compound metabolized |  | Compound metabolized | Compound NOT metabolized | Compound metabolized | Compound metabolized | Compound metabolized | Compound metabolized |  |  | Compound metabolized | Compound metabolized | Compound metabolized | Compound metabolized | Compound metabolized | Compound metabolized | Compound metabolized | Compound metabolized | Compound NOT metabolized |
| COCCCC/C(=N\OCCN)c1ccc(C(F)(F)F)cc1.O=C(O)/C=C\C(=O)O [FLUVOXAMINE MALEATE] |  |  |  |  |  |  | Compound metabolized | Compound NOT metabolized | Compound NOT metabolized | Compound NOT metabolized | Compound NOT metabolized | Compound NOT metabolized | Compound metabolized | Compound metabolized | Compound NOT metabolized | Compound metabolized | Compound NOT metabolized | Compound metabolized | Compound NOT metabolized |  |
| CCOC(=O)C1=C(C)NC(C)=C(C(=O)OC)C1c1cccc([N+](=O)[O-])c1 (configuration not stated) [NITRENDIPINE] |  |  |  |  |  |  |  | Compound metabolized | Compound metabolized | Compound metabolized | Compound metabolized | Compound NOT metabolized | Compound metabolized | Compound metabolized | Compound metabolized | Compound metabolized | Compound metabolized | Compound metabolized | Compound metabolized |  |
| CC#CCn1c(N2CCC[C@@H](N)C2)nc2c1c(=O)n(Cc1nc(C)c3ccccc3n1)c(=O)n2C [LINAGLIPTIN] |  |  |  |  |  |  |  |  | Compound NOT metabolized | Compound NOT metabolized | Compound NOT metabolized | Compound NOT metabolized | Compound NOT metabolized | Compound NOT metabolized | Compound NOT metabolized | Compound NOT metabolized | Compound NOT metabolized | Compound NOT metabolized | Compound NOT metabolized |  |
| CN(C)CCc1c[nH]c2ccc(CS(=O)(=O)N3CCCC3)cc12 [ALMOTRIPTAN] |  |  |  |  |  |  |  | Compound NOT metabolized | Compound NOT metabolized | Compound NOT metabolized | Compound NOT metabolized | Compound NOT metabolized | Compound NOT metabolized | Compound NOT metabolized | Compound NOT metabolized | Compound metabolized | Compound NOT metabolized | Compound NOT metabolized | Compound metabolized |  |
| CN(C/C=C/C#CC(C)(C)C)Cc1cccc2ccccc12 [TERBINAFINE] | Compound NOT metabolized |  | Compound NOT metabolized | Compound NOT metabolized | Compound NOT metabolized | Compound NOT metabolized | Compound NOT metabolized | Compound NOT metabolized |  |  |  |  | Compound NOT metabolized | Compound NOT metabolized |  | Compound NOT metabolized | Compound NOT metabolized |  | Compound NOT metabolized |  |
| CNCC[C@H](Oc1cccc2ccccc12)c1cccs1 [DULOXETINE] |  |  |  |  |  |  |  | Compound NOT metabolized | Compound NOT metabolized | Compound NOT metabolized | Compound NOT metabolized | Compound metabolized | Compound NOT metabolized | Compound NOT metabolized | Compound NOT metabolized | Compound metabolized | Compound NOT metabolized | Compound NOT metabolized | Compound NOT metabolized |  |
| CNNCc1ccc(C(=O)NC(C)C)cc1 [PROCARBAZINE] |  |  |  | Compound NOT metabolized | Compound NOT metabolized | Compound NOT metabolized | Compound NOT metabolized |  | Compound NOT metabolized | Compound metabolized | Compound NOT metabolized |  | Compound NOT metabolized | Compound metabolized |  | Compound metabolized |  | Compound metabolized | Compound metabolized |  |
| O=C([O-])C[C@H](O)C[C@H](O)/C=C/c1c(C2CC2)nc2ccccc2c1-c1ccc(F)cc1.O=C([O-])C[C@H](O)C[C@H](O)/C=C/c1c(C2CC2)nc2ccccc2c1-c1ccc(F)cc1.[Ca+2] [PITAVASTATIN CALCIUM] |  |  |  |  |  |  |  | Compound metabolized | Compound metabolized | Compound metabolized | Compound metabolized | Compound metabolized | Compound metabolized | Compound NOT metabolized | Compound metabolized | Compound metabolized | Compound metabolized | Compound metabolized | Compound metabolized |  |
